Reference: US20220341922A1, “FLUORESCENT PROBE FOR USE IN DETECTION OF BRAIN TUMOR” (The University of Tokyo, priority 2019, published 2022)

Tests used:
calpain 1 [1] = biological target: T1, calpain 1 (Homo sapiens, UniProt P07384); experiment: Change in fluorescence intensity of candidate enzymes using inhibitors; format: biochemical; conditions: candidate enzyme calpain 1
T1 sequence (P07384 1-714): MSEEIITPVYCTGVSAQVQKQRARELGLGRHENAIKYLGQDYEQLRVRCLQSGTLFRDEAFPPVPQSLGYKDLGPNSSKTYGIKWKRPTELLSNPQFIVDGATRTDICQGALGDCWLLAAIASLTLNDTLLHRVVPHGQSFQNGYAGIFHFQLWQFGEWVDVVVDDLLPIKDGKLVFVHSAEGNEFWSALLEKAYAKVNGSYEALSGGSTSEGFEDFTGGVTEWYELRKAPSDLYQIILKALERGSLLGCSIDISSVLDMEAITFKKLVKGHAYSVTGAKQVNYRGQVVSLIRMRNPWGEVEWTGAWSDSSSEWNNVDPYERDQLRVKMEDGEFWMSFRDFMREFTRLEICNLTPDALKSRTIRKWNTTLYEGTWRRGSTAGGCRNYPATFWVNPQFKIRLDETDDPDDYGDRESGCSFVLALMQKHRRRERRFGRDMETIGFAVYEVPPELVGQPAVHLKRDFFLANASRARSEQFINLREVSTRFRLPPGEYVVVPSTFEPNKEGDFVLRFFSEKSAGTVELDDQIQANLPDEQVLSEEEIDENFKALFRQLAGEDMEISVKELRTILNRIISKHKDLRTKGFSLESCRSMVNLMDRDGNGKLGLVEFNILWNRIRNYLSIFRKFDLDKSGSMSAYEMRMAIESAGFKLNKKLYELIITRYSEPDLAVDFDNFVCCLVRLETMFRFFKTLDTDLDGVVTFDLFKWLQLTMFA
T1 sequence (P04632 1-268 partner): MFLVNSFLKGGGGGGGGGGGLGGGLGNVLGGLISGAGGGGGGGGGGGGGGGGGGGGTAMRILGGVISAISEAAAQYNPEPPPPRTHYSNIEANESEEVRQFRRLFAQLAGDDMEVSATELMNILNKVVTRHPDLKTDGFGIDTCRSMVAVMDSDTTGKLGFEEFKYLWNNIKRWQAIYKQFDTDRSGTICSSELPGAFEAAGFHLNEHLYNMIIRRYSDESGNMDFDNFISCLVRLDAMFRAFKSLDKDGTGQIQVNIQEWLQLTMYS

cathepsin D [2] = biological target: T2, cathepsin D (Homo sapiens, UniProt P07339); experiment: as above; format: biochemical; conditions: candidate enzyme cathepsin D
[3] = tested on: fresh glioblastoma and peritumoral tissue; experiment: Screening by fluorescent probe on fresh glioblastoma and peritumoral tissue specimens; conditions: for tumor-specific fluorescent labeling as compared with the surrounding tissue: 50 μM probe solution in PBS, 0.5% v/v DMSO, Ex 465 nm, Em 515 nm, FIGS. 1 and 2; for fluorescence intensity in the tumor: 50 μM probe solution
Description: The fluorescent intensity of fresh glioblastoma and peritumoral tissue were compared using the fluorescent probes YK190, YK213, YK19, and YK281 synthesized in Example 1. As a comparative example, hydroxymethyl rhodamine green (HRMG) having no dipeptide site was used.
50 μM probe solutions (200 μL) in PBS, containing 0.5% v/v DMSO as a co-solvent was added dropwise to each specimen, and the fluorescence intensity was measured over time using Maestro In Vivo Imaging System Ex. • Excitation wavelength: 465 nm • Emission wavelength: 515 nm

calpain 1 [4] = biological target: T1, calpain 1; experiment: Reaction of fluorescent probe with purified enzyme; format: biochemical; conditions: purified calpain 1; FIG. 4
[5] = tested on: calpain 1 knocked down in U87 glioblastoma cell line; experiment: Verification by siRNA knock-down using U87 cell line; format: cell-based; conditions: calpain 1 knocked down by siRNA, 48 hours culture; FIG. 5
Description: (§1) Calpain 1 and cathepsin D were knocked down by siRNA in a cell line, and a reaction with the fluorescent probe YK190 was observed. The experiment was conducted in accordance with the procedure shown below.
(§2) Transfection of U87, a glioblastoma cell line, was done with siRNA utilizing lipofectamine. A reaction with a fluorescent probe was observed after culture for 48 hours.

[6] = tested on: cathepsin D knocked down in U87 glioblastoma cell line; experiment: as above; format: cell-based; conditions: 48 hours culture, FIG. 5
Description: as §1, §2

cathepsin D [7] = biological target: T2, cathepsin D; experiment: Reaction of fluorescent probe with purified enzyme; format: biochemical; conditions: FIG. 4

T2 sequence (P07339 65-412, species assumed): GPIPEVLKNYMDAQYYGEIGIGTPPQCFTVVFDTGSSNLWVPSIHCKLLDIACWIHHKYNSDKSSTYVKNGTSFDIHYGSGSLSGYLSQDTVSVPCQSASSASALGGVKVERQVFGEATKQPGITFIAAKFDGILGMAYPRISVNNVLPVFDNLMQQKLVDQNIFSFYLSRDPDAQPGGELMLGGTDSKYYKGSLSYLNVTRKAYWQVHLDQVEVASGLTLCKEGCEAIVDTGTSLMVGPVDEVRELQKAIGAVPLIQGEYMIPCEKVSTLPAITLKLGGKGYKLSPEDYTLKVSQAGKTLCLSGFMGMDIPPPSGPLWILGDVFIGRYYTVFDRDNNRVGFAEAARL

COCCOCCOC(=O)N[C@@H](CC(C)C)C(=O)N[C@@H](Cc1ccccc1)C(=O)C(=O)NC1CC1 [SNJ-1945]
change in fluorescence intensity with inhibitor (calpain 1 [1]): fluorescence suppression | change in fluorescence intensity with inhibitor (cathepsin D [2]): fluorescence suppression

N[C@@H](Cc1ccc(O)cc1)C(=O)O [YK19, Tyrosine]
tumor-specific fluorescent labeling as compared with the surrounding tissue [3]: a fluorescent response was also well-obtained in a tumor-specific manner

N=C(N)NCCC[C@H](N)C(=O)O [YK190, Arginine]
tumor-specific fluorescent labeling as compared with the surrounding tissue [3]: fluorescent labeling was performed in a tumor-specific manner | fluorescence intensity in the tumor ([3]; FIG. 2): high fluorescence intensity | fluorescence intensity relative to YK213 ([3]; in the tumor, FIG. 2): about two times that of YK213 | change in fluorescence intensity by reaction with the probe (calpain 1 [4]): significant increase in fluorescence intensity | fluorescence intensity compared to the control U87 cell line [5]: reduced fluorescence intensity | fluorescence intensity compared to the control U87 cell line [6]: reduced fluorescence intensity | change in fluorescence intensity by reaction with the probe (cathepsin D [7]): significant increase in fluorescence intensity

N[C@@H](Cc1c[nH]cn1)C(=O)O [YK213, Histidine]
tumor-specific fluorescent labeling as compared with the surrounding tissue [3]: fluorescent labeling was performed in a tumor-specific manner | fluorescence intensity in the tumor ([3]; FIG. 2): high fluorescence intensity
